Assay results: patent publication US10472341B2, “Bicyclic tetrahydrothiazepine derivatives useful for the treatment of neoplastic and/or infectious diseases” (APEIRON BIOLOGICS AG, priority 2015, dated 2019)
Like-named read-outs stand apart in the source and are kept apart here.

Columns and labels:
[1] = tested on: aCD3/aCD28-stimulated human CD4+-T-cells; experiment: IL-2 production and activation markers in aCD3/aCD28 stimulated isolated human CD4+-T-cells; assay type: cell-based; settings: IL-2 production at 3 μM compound
How it was run: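 CD4+ T cells isolated from buffy-coat PBMCs by microbeads were plated in Xvivo medium (1.5*10^5 cells/well) and stimulated with anti-CD3/28 mAbs plus compound. IL-2 measured by ELISA in supernatants at 24 h or 48 h; CD25 and proliferation by flow cytometry, CD69 at 24 h. Activity classes based on IL-2 at 3 μM compound.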

[2] = tested on: aCD3/aCD28-stimulated human PBMCs; experiment: Cytokine production in aCD3/aCD28 stimulated human PBMCs; assay type: cell-based; settings: PBMC, 18 h
How it was run: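 Compound effects measured in buffy-coat PBMCs activated 18 h at 37° C by 1 μg/mL each of soluble anti-CD3 (OKT3) and anti-CD28 (28.2), 1e6 cells/mL. Cytokines in harvested supernatants read by MSD or HTRF.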

[3] = enhancement of IFN-γ production, read-out: Activity Class IFN-γ
[4] = enhancement of IL-2 production, read-out: Activity Class IL-2

## Cl.N[C@H]1CSc2cc(F)c(C(=O)NCC3CCOCC3)cc2N(Cc2ccc(Cl)c(F)c2)C1=O [Example 56, (3R)-3-amino-5-[(4-chloro-3-fluorophenyl)methyl]-8-fluoro-N-(oxan-4-ylmethyl)-4-oxo-2,3,4,5-tetrahydro-1,5-benzothiazepine-7-carboxamide hydrochloride]
[1]
  Activity Class CD4+: C (IL-2 production at 3 μM compound concentration between 2-fold increase as compared to mean IL-2 production of stimulated cells in the absence of compounds and <2 ng/mL)
[2]; [3]
  EC50: < 1.58 µM
[2]; [4]
  EC50: 1.58 to 5.01 µM

## CCCCNC(=O)c1cc2c(cc1F)SC[C@H](N)C(=O)N2Cc1ccc(Cl)c(F)c1 [Example 57, (3R)-3-amino-N-butyl-5-[(4-chloro-3-fluorophenyl)methyl]-8-fluoro-4-oxo-2,3,4,5-tetrahydro-1,5-benzothiazepine-7-carboxamide]
[1]
  Activity Class CD4+: C (IL-2 production at 3 μM compound concentration between 2-fold increase as compared to mean IL-2 production of stimulated cells in the absence of compounds and <2 ng/mL)
[2]; [3]
  EC50: < 1.58 µM
[2]; [4]
  EC50: 1.58 to 5.01 µM

## CCCONC(=O)c1cc2c(cc1F)SC[C@H](N)C(=O)N2Cc1ccc(Cl)cc1.Cl [Example 58, (3R)-3-amino-5-[(4-chlorophenyl)methyl]-8-fluoro-4-oxo-N-propoxy-2,3,4,5-tetrahydro-1,5-benzothiazepine-7-carboxamide hydrochloride]
[1]
  Activity Class CD4+: C (IL-2 production at 3 μM compound concentration between 2-fold increase as compared to mean IL-2 production of stimulated cells in the absence of compounds and <2 ng/mL)
[2]; [3]
  EC50: > 5.01 µM
[2]; [4]
  EC50: > 5.01 µM

## CC(C)CONC(=O)c1cc2c(cc1F)SC[C@H](N)C(=O)N2Cc1ccc(Cl)cc1.Cl [Example 59, (3R)-3-amino-5-[(4-chlorophenyl)methyl]-8-fluoro-N-(2-methylpropoxy)-4-oxo-2,3,4,5-tetrahydro-1,5-benzothiazepine-7-carboxamide hydrochloride]
[1]
  Activity Class CD4+: C (IL-2 production at 3 μM compound concentration between 2-fold increase as compared to mean IL-2 production of stimulated cells in the absence of compounds and <2 ng/mL)
[2]; [3]
  EC50: 1.58 to 5.01 µM
[2]; [4]
  EC50: 1.58 to 5.01 µM

## CC(C)CNNC(=O)c1cc2c(cc1F)SC[C@H](N)C(=O)N2Cc1ccc(Cl)cc1.Cl [Example 60, (3R)-3-amino-5-[(4-chlorophenyl)methyl]-8-fluoro-N′-(2-methylpropyl)-4-oxo-2,3,4,5-tetrahydro-1,5-benzothiazepine-7-carbohydrazide hydrochloride]
[1]
  Activity Class CD4+: C (IL-2 production at 3 μM compound concentration between 2-fold increase as compared to mean IL-2 production of stimulated cells in the absence of compounds and <2 ng/mL)
[2]; [3]
  EC50: < 1.58 µM
[2]; [4]
  EC50: 1.58 to 5.01 µM

## CC(C)C(C)NC(=O)c1ccc2c(c1)N(Cc1ccc(Cl)cc1)C(=O)[C@@H](N)CS2.Cl (stereo partly drawn) [Example 63, (3R)-3-amino-5-[(4-chlorophenyl)methyl]-N-(3-methylbutan-2-yl)-4-oxo-2,3,4,5-tetrahydro-1,5-benzothiazepine-7-carboxamide hydrochloride]
[1]
  Activity Class CD4+: B (IL-2 production at 3 μM compound concentration between 2-10 ng/mL)
[2]; [3]
  EC50: 1.58 to 5.01 µM
[2]; [4]
  EC50: 1.58 to 5.01 µM

## C=CCCNC(=O)c1ccc2c(c1)N(Cc1ccc(Cl)cc1)C(=O)[C@@H](N)CS2.Cl [Example 64, (3R)-3-amino-N-(but-3-en-1-yl)-5-[(4-chlorophenyl)methyl]-4-oxo-2,3,4,5-tetrahydro-1,5-benzothiazepine-7-carboxamide hydrochloride]
[1]
  Activity Class CD4+: C (IL-2 production at 3 μM compound concentration between 2-fold increase as compared to mean IL-2 production of stimulated cells in the absence of compounds and <2 ng/mL)
[2]; [3]
  EC50: 1.58 to 5.01 µM
[2]; [4]
  EC50: > 5.01 µM

## CC(C)CNNC(=O)c1ccc2c(c1)N(Cc1ccc(Cl)cc1)C(=O)[C@@H](N)CS2.Cl [Example 65, (3R)-3-amino-5-[(4-chlorophenyl)methyl]-N′-(2-methylpropyl)-4-oxo-2,3,4,5-tetrahydro-1,5-benzothiazepine-7-carbohydrazide hydrochloride]
[1]
  Activity Class CD4+: C (IL-2 production at 3 μM compound concentration between 2-fold increase as compared to mean IL-2 production of stimulated cells in the absence of compounds and <2 ng/mL)
[2]; [3]
  EC50: 1.58 to 5.01 µM
[2]; [4]
  EC50: 1.58 to 5.01 µM

## CCCCNC(=O)c1ccc2c(c1)N(Cc1ccc(Cl)cc1)C(=O)[C@@H](N)C[S+]2[O-].Cl (stereo partly drawn) [Example 66, (3R)-3-amino-N-butyl-5-[(4-chlorophenyl)methyl]-1,4-dioxo-2,3,4,5-tetrahydro-1λ^4,5-benzothiazepine-7-carboxamide hydrochloride]
[1]
  Activity Class CD4+: C (IL-2 production at 3 μM compound concentration between 2-fold increase as compared to mean IL-2 production of stimulated cells in the absence of compounds and <2 ng/mL)
[2]; [3]
  EC50: < 1.58 µM
[2]; [4]
  EC50: 1.58 to 5.01 µM

## Cl.N[C@H]1CS(=O)(=O)c2cc(F)c(C(=O)NOc3ccccc3)cc2N(Cc2ccc(OC(F)(F)F)cc2)C1=O [Example 74, (3R)-3-amino-8-fluoro-1,1,4-trioxo-N-phenoxy-5-{[4-(trifluoromethoxy)phenyl]methyl}-2,3,4,5-tetrahydro-1λ^6,5-benzothiazepine-7-carboxamide hydrochloride]
[1]
  Activity Class CD4+: C (IL-2 production at 3 μM compound concentration between 2-fold increase as compared to mean IL-2 production of stimulated cells in the absence of compounds and <2 ng/mL)
[2]; [3]
  EC50: 1.58 to 5.01 µM
[2]; [4]
  EC50: > 5.01 µM

## CC(C)CONC(=O)c1cc2c(cc1F)S(=O)(=O)C[C@H](N)C(=O)N2Cc1ccc(Cl)cc1.Cl [Example 75, (3R)-3-amino-5-[(4-chlorophenyl)methyl]-8-fluoro-N-(2-methylpropoxy)-1,1,4-trioxo-2,3,4,5-tetrahydro-1λ^6,5-benzothiazepine-7-carboxamide hydrochloride]
[1]
  Activity Class CD4+: B (IL-2 production at 3 μM compound concentration between 2-10 ng/mL)
[2]; [3]
  EC50: 1.58 to 5.01 µM
[2]; [4]
  EC50: > 5.01 µM

## CC(C)NC(=O)c1ccc2c(c1)N(Cc1ccc(Cl)cc1)C(=O)[C@@H](N)CS2(=O)=O.Cl [Example 79, (3R)-3-amino-5-[(4-chlorophenyl)methyl]-1,1,4-trioxo-N-(propan-2-yl)-2,3,4,5-tetrahydro-1λ^6,5-benzothiazepine-7-carboxamide hydrochloride]
[1]
  Activity Class CD4+: B (IL-2 production at 3 μM compound concentration between 2-10 ng/mL)
[2]; [3]
  EC50: 1.58 to 5.01 µM
[2]; [4]
  EC50: > 5.01 µM

## Cl.N[C@H]1CS(=O)(=O)c2ccc(C(=O)NCCCC(F)(F)F)cc2N(Cc2ccc(Cl)cc2)C1=O [Example 80, (3R)-3-amino-5-[(4-chlorophenyl)methyl]-1,1,4-trioxo-N-(4,4,4-trifluorobutyl)-2,3,4,5-tetrahydro-1λ^6,5-benzothiazepine-7-carboxamide hydrochloride]
[1]
  Activity Class CD4+: A (IL-2 production at 3 μM compound concentration >10 ng/mL)
[2]; [3]
  EC50: < 1.58 µM
[2]; [4]
  EC50: < 1.58 µM

## CC(C)C(C)NC(=O)c1ccc2c(c1)N(Cc1ccc(Cl)cc1)C(=O)[C@@H](N)CS2(=O)=O.Cl (stereo partly drawn) [Example 83, (3R)-3-amino-5-[(4-chlorophenyl)methyl]-N-(3-methylbutan-2-yl)-1,1,4-trioxo-2,3,4,5-tetrahydro-1λ^6,5-benzothiazepine-7-carboxamide hydrochloride]
[1]
  Activity Class CD4+: B (IL-2 production at 3 μM compound concentration between 2-10 ng/mL)
[2]; [3]
  EC50: < 1.58 µM
[2]; [4]
  EC50: > 5.01 µM

## C=CCCNC(=O)c1ccc2c(c1)N(Cc1ccc(Cl)cc1)C(=O)[C@@H](N)CS2(=O)=O.Cl [Example 84, (3R)-3-amino-N-(but-3-en-1-yl)-5-[(4-chlorophenyl)methyl]-1,1,4-trioxo-2,3,4,5-tetrahydro-1λ^6,5-benzothiazepine-7-carboxamide hydrochloride]
[1]
  Activity Class CD4+: B (IL-2 production at 3 μM compound concentration between 2-10 ng/mL)
[2]; [3]
  EC50: < 1.58 µM
[2]; [4]
  EC50: 1.58 to 5.01 µM

## Cl.N[C@H]1CS(=O)(=O)c2cc(F)c(C(=O)NC3CC3)cc2N(Cc2ccc(Cl)cc2)C1=O [Example 85, (3R)-3-amino-5-[(4-chlorophenyl)methyl]-N-cyclopropyl-8-fluoro-1,1,4-trioxo-2,3,4,5-tetrahydro-1λ^6,5-benzothiazepine-7-carboxamide hydrochloride]
[1]
  Activity Class CD4+: C (IL-2 production at 3 μM compound concentration between 2-fold increase as compared to mean IL-2 production of stimulated cells in the absence of compounds and <2 ng/mL)
[2]; [3]
  EC50: 1.58 to 5.01 µM
[2]; [4]
  EC50: 1.58 to 5.01 µM

## Cl.N[C@H]1CS(=O)(=O)c2cc(F)c(C(=O)NC3CCC3)cc2N(Cc2ccc(Cl)cc2)C1=O [Example 86, (3R)-3-amino-5-[(4-chlorophenyl)methyl]-N-cyclobutyl-8-fluoro-1,1,4-trioxo-2,3,4,5-tetrahydro-1λ^6,5-benzothiazepine-7-carboxamide hydrochloride]
[1]
  Activity Class CD4+: B (IL-2 production at 3 μM compound concentration between 2-10 ng/mL)
[2]; [3]
  EC50: < 1.58 µM
[2]; [4]
  EC50: 1.58 to 5.01 µM

## CC(C)NC(=O)c1cc2c(cc1F)S(=O)(=O)C[C@H](N)C(=O)N2Cc1ccc(Cl)cc1F.Cl [Example 87, (3R)-3-amino-5-[(4-chloro-2-fluorophenyl)methyl]-8-fluoro-1,1,4-trioxo-N-(propan-2-yl)-2,3,4,5-tetrahydro-1λ^6,5-benzothiazepine-7-carboxamide hydrochloride]
[1]
  Activity Class CD4+: C (IL-2 production at 3 μM compound concentration between 2-fold increase as compared to mean IL-2 production of stimulated cells in the absence of compounds and <2 ng/mL)
[2]; [3]
  EC50: > 5.01 µM
[2]; [4]
  EC50: > 5.01 µM
